Values quoted from earlier work in patent publication US20080167327A1, “HYDRATES OF ERLOTINIB HYDROCHLORIDE” (priority 2006, published 2008).
Where a name gives a salt, the structure may show the parent alone.

Assays:
[1] = compared with Form B; disclosed in WO 2004/072049
[2] = compared with Form A; disclosed in WO 01/34574

Compound | solubility [1] | thermodynamic stability [2]
C#Cc1cccc(Nc2ncnc3cc(OCCOC)c(OCCOC)cc23)c1 [Form E, erlotinib hydrochloride] | higher solubility | –
C#Cc1cccc(Nc2ncnc3cc(OCCOC)c(OCCOC)cc23)c1 [Form B, erlotinib hydrochloride] | – | thermodynamically more stable than Form A
